Laboratory results reported in US6713265B1 (Synaptic Pharmaceutical Corporation, priority 1999, dated 2004).
pKi: −log10 of the molar value. “And” between values parts separate entries of the source, which are not always exact repeats. Identical values can stand only once. Counter-ions that a name gives are not always drawn.

Legend:
[1] = tested on: NPY-induced feeding behavior; assay: NPY-induced food intake in satiated rats; type: in vivo, rat; settings: for Food intake, NPY + compound: compound 10 mg/kg i.p. then 300 pmole NPY i.c.v., 4 hours
Experimental: For these determinations food intake may be measured in normal satiated rats after intracerebroventricular application (i.c.v.) of NPY in the presence or absence of the test compound. Male Sprague Dawley rats (Ciba-Geigy AG, Sisseln, Switzerland) weighing between 180 g and 220 g are used for all experiments. The rats are individually housed in stainless steel cages and maintained on an 11:13 h light-dark cycle (lights off at 18:00 h) at a controlled temperature of 21-23° C. at all times. Water and food (NAFAG lab chow pellets NAFAG, Gossau, Switzerland) are available ad libidum.
Rats under pentobarbital anesthesia are stereotaxically implanted with a stainless steel guide cannula targeted at the right lateral ventricle. Stereotaxic coordinates, with the incisor bar set −2.0 mm below interaural line, are: −0.8 mm anterior and +1.3 mm lateral to bregma. The guide cannula is placed on the dura. Injection cannulas extend the guide cannulas −3.8 mm ventrally to the skull surface. Animals are allowed at least 4 days of recovery postoperatively before being used in the experiments. Cannula placement is checked postoperatively by testing all rats for their drinking response to a 50. ng intracerebroventricular (i.c.v.) injection of angiotensin II. Only rats which drink at least 2.5 ml of water within 30 min. after angiotensin II injection are used in the feeding studies.
All injections are made in the morning 2 hours after light onset. Peptides are injected in artificial cerebrospinal fluid (ACSF) in a volume of 5 μl. ACSF contains: NaCl 124 mM, KCl 3.75 mM, CaCl2 2.5 mM, MgSO4 2.0 mM, KH2PO4 0.22 mM, NaHCO3 26 mM and glucose 10 mM. Porcine-NPY (p-NPY) are dissolved in artificial cerebrospinal fluid (ACS). For i.c.v. injection the test compounds are preferably dissolved in DMSO/water (10%, v/v). The vehicle used for intraperitoneal (i.p.), subcutaneous (s.c.) or oral (p.o.) delivery of compounds is preferably water, physiological saline or DMSO/water (10% v/v), or cremophor/water (20% v/v), respectively.
Animals which are treated with both test compounds and porcine-NPY are treated first with the test compound.
Food intake may be measured by placing preweighed pellets into the cages at the time of NPY injection. Pellets are then removed from the cage subsequently at each selected time point and replaced with a new set of preweighed pellets. The food intake of animals treated with test compound may be calculated as a percentage of the food intake of control animals i.e., animals treated with vehicle. Alternatively, food intake for each group of animals subjected to a particular experimental condition may be expressed as the mean±S.E.M. Statistical analysis is performed by analysis of variance using the Student-Newman-Keuls test.
Food intake is reported as the mean±S.E.M. intake for a group of animals.

food intake = assay: Food intake in food-deprived rats; type: in vivo, rat; settings: 30 mg/kg i.p., after 24h food deprivation
Experimental: After receipt, the animals are individually housed for the duration of the study and allowed free access to normal food together with tap water. The animals are maintained in a room with a 12 h light/dark cycle (8:00 a.m. to 8:00 p.m. light) at 24° C. and monitored humidity. After placement into individual cages the rats undergo a 4 day equilibration period, during which they are habituated to their new environment and to eating a powdered or pellet diet NAFAG, Gossau, Switzerland).
At the end of the equilibration period, food is removed from the animals for 24 hours starting at 8:00 a.m. At the end of the fasting period compound or vehicle may be administered to the animals orally or by injection intraperitoneally or intravenously. After 10-60 min. food is returned to the animals and their food intake is monitored at various time periods during the following 24 hour period. The food intake of animals treated with test compound may be calculated as a percentage of the food intake of control animals (i.e., animals treated with vehicle). Alternatively, food intake for each group of animals subjected to a particular experimental condition may be expressed as the mean±S.E.M.
Measurements were performed two hours after administration of the test compound.

α2c = molecular target: T1, α2c (Homo sapiens, UniProt P18825); assay: Binding at cloned human α2c adrenergic receptor
T1 sequence (P18825 1-462): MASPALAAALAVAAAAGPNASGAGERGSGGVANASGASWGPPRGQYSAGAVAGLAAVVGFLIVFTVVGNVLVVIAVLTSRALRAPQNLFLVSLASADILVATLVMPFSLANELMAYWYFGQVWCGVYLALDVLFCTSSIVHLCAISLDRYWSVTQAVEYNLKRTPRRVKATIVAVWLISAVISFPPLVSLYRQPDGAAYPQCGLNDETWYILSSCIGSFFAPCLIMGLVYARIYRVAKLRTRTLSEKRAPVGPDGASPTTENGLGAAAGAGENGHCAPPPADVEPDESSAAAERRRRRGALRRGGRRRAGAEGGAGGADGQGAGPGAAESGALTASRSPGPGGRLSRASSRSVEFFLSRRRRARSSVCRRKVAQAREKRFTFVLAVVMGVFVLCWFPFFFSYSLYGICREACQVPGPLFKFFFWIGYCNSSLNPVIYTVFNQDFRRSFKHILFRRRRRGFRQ

human Y4 receptor = molecular target: T2, human Y4 receptor (Homo sapiens, UniProt P50391); assay: ^125I-PYY binding to membranes, cloned human Y4 receptor; settings: read-out: Binding Affinity Ki vs. ^125I-PYY, Human Receptor Y4; Table 14; stably transfected LM(tk-) cells
T2 construct: expressed in transfected cells; host or cells: COS-7 (transient)

human Y1 receptor = molecular target: T3, human Y1 receptor (Homo sapiens, UniProt P25929); assay: ^125I-PYY binding to membranes, cloned human Y1 receptor; settings: read-out: Binding Affinity Ki vs. ^125I-PYY, Human Receptor Y1; Table 14; stably transfected 293 cells (compound 1 also COS-7)
T3 construct: expressed in transfected cells; host or cells: COS-7 (transient)
T3 sequence (P25929 1-384): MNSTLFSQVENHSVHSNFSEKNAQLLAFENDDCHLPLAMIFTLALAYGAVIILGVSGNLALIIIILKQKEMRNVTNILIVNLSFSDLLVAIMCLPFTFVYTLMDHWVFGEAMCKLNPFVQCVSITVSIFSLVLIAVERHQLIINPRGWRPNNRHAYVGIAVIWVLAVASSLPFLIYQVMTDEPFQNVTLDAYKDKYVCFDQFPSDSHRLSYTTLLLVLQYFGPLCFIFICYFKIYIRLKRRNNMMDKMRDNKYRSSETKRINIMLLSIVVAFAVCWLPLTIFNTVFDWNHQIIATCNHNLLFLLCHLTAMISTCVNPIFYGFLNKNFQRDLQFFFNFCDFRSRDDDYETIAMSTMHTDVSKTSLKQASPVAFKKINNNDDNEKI

human Y5 receptor [2] = molecular target: T4, human Y5 receptor (Homo sapiens, UniProt Q15761); assay: Radioligand binding to membranes of cells expressing cloned human Y5 receptor; design: Ki Values, Human Y5; apparent Kd; pKd; The isolated clone (CG-19) turned out to contain a full length cDNA; The longest open reading frame encodes a 455 amino acid protein; settings: read-out: Binding Affinity Ki vs. ^125I-PYY, Human Receptor Y5; Table 14; stably transfected LM(tk-) cells
T4 sequence (Q15761 1-445): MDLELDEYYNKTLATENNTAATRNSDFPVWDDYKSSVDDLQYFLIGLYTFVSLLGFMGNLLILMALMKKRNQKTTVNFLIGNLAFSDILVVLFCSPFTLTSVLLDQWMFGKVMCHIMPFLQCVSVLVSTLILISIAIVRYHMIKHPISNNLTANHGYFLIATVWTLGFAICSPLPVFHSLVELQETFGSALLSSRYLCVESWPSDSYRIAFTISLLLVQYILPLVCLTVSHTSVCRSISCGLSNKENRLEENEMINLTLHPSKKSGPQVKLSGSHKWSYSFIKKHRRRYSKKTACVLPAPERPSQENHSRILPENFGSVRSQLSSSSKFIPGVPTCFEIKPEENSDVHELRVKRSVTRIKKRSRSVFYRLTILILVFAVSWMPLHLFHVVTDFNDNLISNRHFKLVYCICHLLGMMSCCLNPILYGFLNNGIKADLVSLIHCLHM

human Y2 receptor = molecular target: T5, human Y2 receptor (Homo sapiens, UniProt P49146); assay: ^125I-PYY binding to membranes, cloned human Y2 receptor; settings: read-out: Binding Affinity Ki vs. ^125I-PYY, Human Receptor Y2; Table 14; stably transfected 293 cells (compound 1 also COS-7)
T5 construct: expressed in transfected cells; host or cells: COS-7 (transient)
T5 sequence (P49146 1-381): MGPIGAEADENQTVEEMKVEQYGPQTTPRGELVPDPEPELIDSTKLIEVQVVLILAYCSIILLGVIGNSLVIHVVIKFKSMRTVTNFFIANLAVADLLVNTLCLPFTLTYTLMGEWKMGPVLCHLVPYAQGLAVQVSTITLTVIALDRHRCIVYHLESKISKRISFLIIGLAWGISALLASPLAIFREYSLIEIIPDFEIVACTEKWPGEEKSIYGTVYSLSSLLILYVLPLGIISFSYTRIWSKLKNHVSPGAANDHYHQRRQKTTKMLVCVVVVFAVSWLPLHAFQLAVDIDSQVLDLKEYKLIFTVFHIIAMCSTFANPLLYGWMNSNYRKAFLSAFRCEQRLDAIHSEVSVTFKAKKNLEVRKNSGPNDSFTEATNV

human Y5 receptor [3] = molecular target: T4, human Y5 receptor; assay: Radioimmunoassay of cAMP, cells stably expressing human Y5 receptor; type: cell-based; design: Ki Values, Human Y5; apparent Kd; pKd; The isolated clone (CG-19) turned out to contain a full length cDNA; The longest open reading frame encodes a 455 amino acid protein; settings: block of NPY-induced inhibition of cAMP accumulation, forskolin-stimulated LM(tk-) cells, human Y5
Experimental: LM(tk-) cells stably transfected with the human Y5 receptor were routinely converted from an adherent monolayer to a viable suspension. […] The cell suspension was maintained in a shaking incubator at 37° C., 5% CO2 for 24 hours. […] Alternatively, cells may be returned to adherent cell culture in complete DMEM by distribution into 96-well microtiter plates coated with poly-D-lysine (0.01 mg/ml) followed by incubation at 37° C., 5% CO2 for 24 hours.
The maximum inhibition of cAMP accumulation (Emax) and the concentration producing a half-maximal effect (EC50) were determined by nonlinear regression analysis according to a 4 parameter logistic equation.
The ability of the compounds to antagonize the Y-type receptors is reported as the Kb. […] The results shown are representative of at least three independent experiments.

T2 sequence (P50391 whole entry): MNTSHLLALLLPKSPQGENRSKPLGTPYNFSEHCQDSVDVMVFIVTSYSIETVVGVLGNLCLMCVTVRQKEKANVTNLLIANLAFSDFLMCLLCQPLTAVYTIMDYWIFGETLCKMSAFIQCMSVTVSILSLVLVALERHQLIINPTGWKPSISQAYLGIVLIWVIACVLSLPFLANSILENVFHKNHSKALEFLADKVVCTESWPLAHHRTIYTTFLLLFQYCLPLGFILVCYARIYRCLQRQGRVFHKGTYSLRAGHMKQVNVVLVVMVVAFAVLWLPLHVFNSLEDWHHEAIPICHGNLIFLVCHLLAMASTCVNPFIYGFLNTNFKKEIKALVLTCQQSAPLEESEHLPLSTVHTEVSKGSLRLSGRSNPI

Compound: c1ccc(Nc2nc(Nc3ccccc3)c3ccccc3n2)cc1 [Compound 1, 2,4-Diphenylamino-guinazoline hydrochloride]
- Food intake, NPY + compound ([1]; mean ± S.E.M.): 4.6 ± 0.6 g

Compound: Nc1nc(NCCCCCCNS(=O)(=O)c2cccc3ccccc23)nc2ccccc12 [Compound 2, Naphthalene-1-sulfonic acid [6-(4-amino-quinazolin-2-ylamino)-hexyl]-amide]
- Two-hour food intake of food-deprived rats, percentage of intake compared to control rats, Mean (food intake): 42%

Compound: Cl.Nc1nc(NC[C@H]2CC[C@H](CNS(=O)(=O)c3cccc4ccccc34)CC2)nc2ccccc12 [Compound 5, trans-Naphthalene-1-sulfonic acid {4-[(4-amino-quinazolin-2-ylamino)-methyl]-cyclohexylmethyl}-amide hydrochloride]
- Food intake, NPY + compound ([1]; mean ± S.E.M.): 4.1 ± 0.4 g

Compound: Cl.Cl.c1ccc(Nc2nc(Nc3ccc(N4CCCCC4)cc3)nc3ccccc23)cc1 [Compound 6, 2-[4-(Piperidin-1-yl)-phenylamino]-4-Phenylamino-quinazoline dihydrochloride]
- Two-hour food intake of food-deprived rats, percentage of intake compared to control rats, Mean (food intake): 38%
- pKi (α2c): 6.35

Compound: CC(=O)O[C@H]1CC[C@H](Nc2nc(Nc3ccccc3)c3ccccc3n2)CC1.Cl [Compound 7, trans-2-(4-Acetoxy-cyclohexylamino)-4-Phenylamino-quinazoline hydrochloride]
- Two-hour food intake of food-deprived rats, percentage of intake compared to control rats, Mean (food intake): 47%

Compound: COc1ccc(Nc2nc(Nc3ccccc3)c3cccc(OC)c3n2)cc1.Cl [Compound 9, 8-Methoxy-2-(4-methoxy-phenylamino)-4-phenylamino-quinazoline hydrochloride]
- Two-hour food intake of food-deprived rats, percentage of intake compared to control rats, Mean (food intake): 40%

Compound: CNS(=O)(=O)Cc1ccc(Nc2nc(Nc3ccccc3)c3cc(OC)ccc3n2)cc1 [Compound 10, N-Methyl-[4-(6-methoxy-4-phenylamino-quinazolin-2-ylamino)-phenyl1-methanesulfonamide hydrochloride]
- Two-hour food intake of food-deprived rats, percentage of intake compared to control rats, Mean (food intake): 74%

Compound: CNS(=O)(=O)Cc1ccc(Nc2nc(Nc3ccccc3)c3ccccc3n2)cc1.Cl [Compound 11, N-Methyl-[4-(4-Phenylamino-quinazolin-2-ylamino)-phenyl]-methanesulfonamide hydrochloride]
- Two-hour food intake of food-deprived rats, percentage of intake compared to control rats, Mean (food intake): 15%

Compound: Cl.O=S(=O)(NC[C@H]1CC[C@H](CNCc2ccc3ccccc3c2)CC1)c1ccccc1C(F)(F)F [Compound 21]
- pKi (human Y4 receptor): 4.73
- pKi (human Y1 receptor): 4.89
- Two-hour food intake of food-deprived rats, percentage of intake compared to control rats, Mean (food intake): 80%
- pKi (human Y5 receptor [2]): 8.01
- pKi (human Y2 receptor): 5.79

Compound: Cl.O=S(=O)(NC[C@H]1CC[C@H](CNCc2cccc3ccccc23)CC1)c1ccccc1C(F)(F)F [Compound 23]
- pKi (human Y4 receptor): 4.67
- pKi (human Y1 receptor): 4.84
- Two-hour food intake of food-deprived rats, percentage of intake compared to control rats, Mean (food intake): 58%
- Kb (human Y5 receptor [3]): 0.038 µM
- pKi (human Y5 receptor [2]): 7.59
- pKi (human Y2 receptor): 6.21

Compound: Cl.Cl.O=[N+]([O-])c1ccccc1S(=O)(=O)NC[C@H]1CC[C@H](CNCc2ccc3ccccc3n2)CC1 [Compound 26]
- pKi (human Y4 receptor): 4.71
- pKi (human Y1 receptor): 4.63
- Two-hour food intake of food-deprived rats, percentage of intake compared to control rats, Mean (food intake): 73%
- pKi (human Y2 receptor): 4.24

Compound: NPY: peptide neurotransmitter neuropeptide Y, 36 amino acids; feeding studies used 300 pmole of porcine NPY i.c.v.
- Food intake, NPY ([1]; 300 pmole NPY i.c.v. alone, cumulative intake 4 hours after NPY, mean ± S.E.M.): 7.4 ± 0.5 g and 6.8 ± 1.0 g and 5.8 ± 0.5 g and 4.9 ± 0.4 g
- food intake of NPY-stimulated animals compared to vehicles ([1]; 300 pmole i.c.v., p<0.05 Student-Newman-Keuls): significantly induce food intake
